Where two headings read alike, the source gives them in different places. Numbered stars: 1 amine (or outer) side, 2 acyl side, 3 side chain; on linkers, the order of the positions; unused ones are H or OH. Bridge positions count the residues as written; N and C are the ends. Square brackets hold non-standard residues; d marks the D form. Peptide text beside a SMILES is read from it. * marks the point of attachment. X1 = O=C1C[C@@H](C(=O)[*:2])N([*:1])C[C@H]1CS[C@@H]1CN2CCC1CC2; NMePhe(4-NMe2) = CN[C@@H](Cc1ccc(N(C)C)cc1)C(=O)O; Picolinoyl(3-OH) = O=C(c1ncccc1O)*; Phg = N[C@H](C(=O)O)c1ccccc1; dAbu = CC[C@@H](N)C(=O)O
How the values were obtained:
[1] = rabbit, in vivo; cited from earlier work
VREf isolates = test: microbe, parasite or virus in culture; settings: for MIC: modal MIC of triplicate, CLSI guidelines
Protocol: Initial organism identification and susceptibility determination were performed via MALDI-TOF MS (Bruker Daltonics, Billerica, MA, USA) and MicroScan Walkaway (Beckman Coulter, Brea, CA), respectively, in the clinical microbiology laboratory. Pure colonies of the VREf isolates cultured from the CSF on hospital days 33 and 57 and from blood on days 35 and 52 were sub-cultured to BD BBL chocolate II agar slants (Becton, Dickinson and Company, Sparks, MD, USA) and shipped immediately overnight to the research laboratory where all subsequent testing was performed. Identification and resistance marker detection was confirmed via the Verigene Gram-positive blood culture assay (Luminex, Northbrook, IL, USA).
Minimum inhibitory concentrations were determined in triplicate according to CLSI guidelines. Modal MIC values are reported.

[2] = design: method as in PMID 31295511; settings: average in uninfected rats; cited from earlier work
[3] = in vivo, cited from earlier work
Source text: Almost exactly 2 days had elapsed between the time of the patient’s last oritavancin dose and the time of CSF collection.

[4] = Estimated unbound plasma concentration, CSF/plasma penetration and projected maximum CSF concentration extrapolated from published pharmacokinetic data; settings: for projected maximal CSF concentration at plasma Tmax: in vivo; for CSF/plasma ratio: this patient, point estimate
Protocol: CSF samples were immediately frozen at −80 °C and shipped overnight on dry ice. […] Results are presented as the mean (±SD) of the two measured CSF concentrations. Additionally, estimated corresponding unbound plasma concentrations at the time of CSF collection were extrapolated for each agent from published pharmacokinetic data in order to establish an estimate of the degree of CSF/plasma penetration. This % CSF/plasma penetration was then utilized to predict the maximum post-dose CSF concentration on the basis of the peak free plasma concentration (fCmax) and the time of fCmax (Tmax) of each agent. Finally, these predictions were evaluated against published data, all of which were restricted to animal studies except for tigecycline.

[5] = design: method as in PMID 16982782, PMID 17043116, PMID 21585240, PMID 25216547; settings: cited from earlier work
[6] = cited from earlier work
[7] = Enterococcus faecium, VREf isolate from CSF, hospital day 33
[8] = Enterococcus faecium, VREf isolate from CSF, hospital day 57
[9] = Enterococcus faecium, VREf isolate from blood, hospital day 35
[10] = Enterococcus faecium, VREf isolate from blood, hospital day 52
[11] = VREf isolate from CSF, hospital day 33, CLSI M100-S30 unless footnoted (b: CLSI vancomycin-susceptible E. faecalis; c: FDA E. faecalis; d: EUCAST v.10.0 E. faecium)
[12] = VREf isolate from CSF, hospital day 57, CLSI M100-S30 unless footnoted
[13] = VREf isolate from blood, hospital day 35, CLSI M100-S30 unless footnoted
[14] = VREf isolate from blood, hospital day 52, CLSI M100-S30 unless footnoted
[15] = VREf isolate from CSF, hospital day 33
[16] = VREf isolate from CSF, hospital day 57
[17] = VREf isolate from blood, hospital day 35
[18] = VREf isolate from blood, hospital day 52

Row | Compound | MIC (VREf isolates; [7]) [µg/mL] | MIC (VREf isolates; [8]) [µg/mL] | MIC (VREf isolates; [9]) [µg/mL] | MIC (VREf isolates; [10]) [µg/mL] | Interpretive Category (VREf isolates; [11]) | Interpretive Category (VREf isolates; [12]) | Interpretive Category (VREf isolates; [13]) | Interpretive Category (VREf isolates; [14]) | other results
1 | CC[C@H]1NC(=O)[C@@H](NC(=O)c2ncccc2O)[C@@H](C)OC(=O)[C@H](c2ccccc2)NC(=O)[C@@H]2CC(=O)[C@H](CS[C@@H]3CN4CCC3CC4)CN2C(=O)[C@H](Cc2ccc(N(C)C)cc2)N(C)C(=O)[C@@H]2CCCN2C1=O [Quinupristin] ({Picolinoyl(3-OH)}-T[dAbu]P[NMePhe(4-NMe2)][X1][Phg]; ester 1-C) | – | – | – | – | – | – | – | – | Published % CSF/Plasma Penetration [1]: 0 [23, 27] %
2 | CO[C@H]1/C=C/O[C@@]2(C)Oc3c(C)c(O)c4c(O)c(c(/C=N/N5CCN(C)CC5)c(O)c4c3C2=O)NC(=O)/C(C)=C\C=C\[C@H](C)[C@H](O)[C@@H](C)[C@@H](O)[C@@H](C)[C@H](OC(C)=O)[C@@H]1C [Rifampin] | ≥ 4 | ≥ 4 | ≥ 4 | ≥ 4 | R | R | R | R | –
3 | Cn1nnc(-c2ccc(-c3ccc(N4C[C@H](CO)OC4=O)cc3F)cn2)n1 [Tedizolid] | 2 | 2 | 2 | 2 | – | – | – | – | Published % CSF/Plasma Penetration [2]: 2.2 [16] %; half-life ([3]; iv): 12 h; steady-state plasma fCmax ([3]; iv): 0.6 mg/L; projected maximal CSF concentration at plasma Tmax [4]: roughly 0.3 mg/L; CSF/plasma ratio [4]: approximately 50%; protein binding [5]: 80%
4 | CCCCCCCCCCNCCN[C@@]1(C)C[C@H](O[C@H]2[C@H](Oc3c4cc5cc3Oc3ccc(cc3Cl)[C@@H](O)[C@@H](NC(=O)[C@@H](CC(C)C)NC)C(=O)N[C@@H](CC(N)=O)C(=O)N[C@H]5C(=O)N[C@H]3C(=O)N[C@H](C(=O)N[C@H](C(=O)O)c5cc(O)c(CNCP(=O)(O)O)c(O)c5-c5cc3ccc5O)[C@H](O)c3ccc(c(Cl)c3)O4)O[C@H](CO)[C@@H](O)[C@@H]2O)O[C@@H](C)[C@H]1O [Telavancin] | – | – | – | – | – | – | – | – | MIC (VREf isolates; [15]): ≥4 µg/mL; MIC (VREf isolates; [16]): ≥4 µg/mL; MIC (VREf isolates; [17]): ≥4 µg/mL; MIC (VREf isolates; [18]): ≥4 µg/mL
5 | CN(C)[C@@H]1C(O)=C(C(N)=O)C(=O)[C@@]2(O)C(O)=C3C(=O)c4c(O)cccc4[C@@](C)(O)[C@H]3C[C@@H]12 [Tetracycline] | – | – | – | – | R | R | R | R | –
6 | CN(C)c1cc(NC(=O)CNC(C)(C)C)c(O)c2c1C[C@H]1C[C@H]3[C@H](N(C)C)C(O)=C(C(N)=O)C(=O)[C@@]3(O)C(O)=C1C2=O [Tigecycline] | 0.25 | 0.25 | 0.25 | 0.25 | S | S | S | S | penetration ratios ([6]; a patient with cerebritis due to Acinetobacter): 7–36%; Published % CSF/Plasma Penetration ([6]; human, in vivo): 5–41 [21, 22] %; half-life [3]: ≈ 30 h; projected maximal CSF concentration at plasma Tmax [4]: approximately 0.197 mg/L; CSF/plasma ratio [4]: 65.5%
7 | CN[C@H](CC(C)C)C(=O)N[C@H]1C(=O)N[C@@H](CC(N)=O)C(=O)N[C@H]2C(=O)N[C@H]3C(=O)N[C@H](C(=O)N[C@H](C(=O)O)c4cc(O)cc(O)c4-c4cc3ccc4O)[C@H](O)c3ccc(c(Cl)c3)Oc3cc2cc(c3O[C@@H]2O[C@H](CO)[C@@H](O)[C@H](O)[C@H]2O[C@H]2C[C@](C)(N)[C@H](O)[C@H](C)O2)Oc2ccc(cc2Cl)[C@H]1O [Vancomycin] | – | – | – | – | R | R | R | R | MIC (VREf isolates; [15]): ≥256 µg/mL; MIC (VREf isolates; [16]): ≥256 µg/mL; MIC (VREf isolates; [17]): ≥256 µg/mL; MIC (VREf isolates; [18]): ≥256 µg/mL

From PMC8482274, “Inadequate Cerebrospinal Fluid Concentrations of Available Salvage Agents Further Impedes the Optimal Treatment of Multidrug-Resistant Enterococcus faecium Meningitis and Bacteremia” (Infectious Disease Reports, 2021)
